{"source": "patent US20150258077A1", "about": "“SUBSTITUTED B[…] FOR TREATMENT OF DEMENTIA” (P2D Inc., priority 2012, published 2015)", "key": {"patients with dementia": {"tested_on": "patients with dementia", "settings": "Alzheimer's disease, frontotemporal dementia, vascular dementia; Dolder et al. review; cited from earlier work"}, "3×Tg-AD mice": {"tested_on": "3×Tg-AD mice", "assay": "Short-term memory in single alternation T-maze, 3×Tg-AD mice", "format": "in vivo", "settings": "10 mg/kg in saline 1 hr prior to testing, vs saline controls, p<0.001", "experimental": "In this model, genes that cause Alzheimer's disease have been cloned from living Alzheimer's patients and then directly cloned into the genome of living mice to create Alzheimer mice (3×Tg-AD mice). […] (Oddo, S., et al., Triple-transgenic model of Alzheimer's disease with plaques and tangles: intracellular Abeta and synaptic dysfunction. Neuron, 2003; 39(3):409-21.)\nShort-term memory was assessed in a well-accepted memory model (single alternation T-maze). In these studies, animals were administered 10 mg/kg PD2005 in saline 1 hr prior to testing and controls were administered only saline."}, "dopamine transporter": {"target": "dopamine transporter (Homo sapiens, UniProt Q01959)", "sequence (Q01959 whole entry)": "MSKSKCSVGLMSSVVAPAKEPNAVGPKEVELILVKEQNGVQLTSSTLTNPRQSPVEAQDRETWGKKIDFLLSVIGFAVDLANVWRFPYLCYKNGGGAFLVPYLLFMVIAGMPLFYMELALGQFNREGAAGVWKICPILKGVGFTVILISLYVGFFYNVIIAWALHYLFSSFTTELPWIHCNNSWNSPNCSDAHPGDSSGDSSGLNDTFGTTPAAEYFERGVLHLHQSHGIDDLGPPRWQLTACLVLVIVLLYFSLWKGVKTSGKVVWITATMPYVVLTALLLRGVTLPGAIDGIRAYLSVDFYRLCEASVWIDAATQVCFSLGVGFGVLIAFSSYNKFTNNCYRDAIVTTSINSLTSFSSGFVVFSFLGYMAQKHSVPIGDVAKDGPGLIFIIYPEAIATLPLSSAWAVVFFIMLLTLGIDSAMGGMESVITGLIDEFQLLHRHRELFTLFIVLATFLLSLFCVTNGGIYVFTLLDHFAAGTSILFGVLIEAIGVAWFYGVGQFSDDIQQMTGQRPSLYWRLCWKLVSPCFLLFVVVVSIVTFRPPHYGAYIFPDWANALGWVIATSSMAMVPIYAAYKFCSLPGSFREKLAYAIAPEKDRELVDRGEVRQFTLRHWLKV", "settings": "result in words; cited from earlier work"}}, "data": [{"smiles": "COC(=O)C(c1ccccc1)C1CCCCN1", "note": "(centres unmarked) [methylphenidate]", "values": [{"measurement": "effectiveness in patients with dementia", "setting": "patients with dementia", "result": "not effective"}]}, {"smiles": "CC(N)Cc1ccccc1", "note": "(centres unmarked) [amphetamine]", "values": [{"measurement": "effectiveness in patients with dementia", "setting": "patients with dementia", "result": "not effective"}]}, {"smiles": "C=CCN1C2CCC1CC(OC(c1ccc(F)cc1)c1ccc(F)cc1)C2", "note": "(stereo not drawn) [PD2005, N-allyl-4′,4″-difluoro-3α-diphenyl-methoxytropane]", "values": [{"measurement": "improvement in memory", "setting": "3×Tg-AD mice; first day of testing", "result": 140, "unit": "%"}, {"measurement": "memory improvement", "setting": "3×Tg-AD mice; following day of testing", "result": 113, "unit": "%"}]}, {"smiles": "CN1[C@@H]2CC[C@H]1C[C@@H](OC(c1ccccc1)c1ccccc1)C2", "note": "[benztropine]", "values": [{"measurement": "affinity for the dopamine transporter", "setting": "dopamine transporter", "result": "high affinity"}]}]}
